How the values were obtained:
[1] = biological target: T1, COX-2 (Mus musculus, UniProt Q05769); test: LPS-induced COX-2 activity in RAW264.7 cells (PGE2 EIA); format: cell-based, murine; conditions: RAW264.7, LPS 0.1 μg/ml 6 hr; higher concentrations of compound B (1-100 μM tested); dexamethasone 1 μM
T1 construct: examined in LPS-stimulated RAW cells; endogenous in cells; host or cells: RAW264.7 cells, LPS-stimulated (0.1 µg/ml, 6 hr), then lysed
T1 sequence (Q05769 18-604): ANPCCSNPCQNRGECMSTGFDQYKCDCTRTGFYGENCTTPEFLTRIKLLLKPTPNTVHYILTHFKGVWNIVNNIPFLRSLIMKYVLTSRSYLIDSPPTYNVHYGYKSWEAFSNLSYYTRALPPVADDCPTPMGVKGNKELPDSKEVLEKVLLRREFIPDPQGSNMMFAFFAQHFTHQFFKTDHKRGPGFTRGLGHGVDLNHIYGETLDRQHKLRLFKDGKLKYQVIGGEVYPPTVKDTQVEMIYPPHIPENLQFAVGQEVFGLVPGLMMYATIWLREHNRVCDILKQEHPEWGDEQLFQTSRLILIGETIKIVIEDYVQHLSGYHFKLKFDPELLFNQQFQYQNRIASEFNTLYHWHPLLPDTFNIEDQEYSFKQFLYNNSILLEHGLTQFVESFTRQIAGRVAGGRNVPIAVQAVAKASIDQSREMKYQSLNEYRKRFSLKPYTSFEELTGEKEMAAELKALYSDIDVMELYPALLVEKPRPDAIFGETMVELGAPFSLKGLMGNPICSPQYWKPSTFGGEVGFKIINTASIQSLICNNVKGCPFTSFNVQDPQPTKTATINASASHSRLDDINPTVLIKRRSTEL
Procedure: (§1) In this experiment, the inhibitory effect of compound B was compared to that of dexamethasone, a potent inhibitor of COX-2 expression. RAW264.7 cells were grown in RPMI-1640 medium containing 3% FBS and pre-incubated for 1 hr at 37° C. with compound B (1, 3, 10, 30 or 100 μM), dexamethasone (Dex, 1 μM), or without drug. After 1 hr LPS (0.1 μg/ml) was added, and the cells were further incubated for 6 hr at 37° C. Control cells received neither drug nor LPS. Cells were collected, lysed and assayed for cyclooxygenase activities essentially according to the method of Brideau et al. (Inflamm Res 45:68-74, 1996). COX-2 activity was measured using the Biotrak Prostaglandin E2 (PGE2) EIA Kit, and COX-1 activity was determined using the Biotrak Thromboxane B2 (TXB2) EIA Kit, both from Amersham Pharmacia Biotech (Piscataway, N.J.).

[2] = tested on: TNF-alpha production; test: Inhibition of LPS-induced TNF-alpha production in RAW264.7 cells (ELISA); format: cell-based, murine; conditions: RAW264.7, 1-100 μM compound 1 hr pre-incubation, LPS 0.1 μg/ml 6 hr
Procedure: The ability of compound B to inhibit TNF-alpha production was examined in a standard in vitro model of inflammation—the murine macrophage-like cell line RAW264.7 stimulated with lipopolysaccharides (LPS). RAW264.7 cells were grown in RPMI-1640 medium containing 3% FBS and pre-incubated for 1 hr at 37° C. with varying concentrations (1, 3, 10, 30 or 100 μM) of compound B. LPS (0.1 μg/ml) was then added, and the cells were further incubated for 6 hr at 37° C. in a 5% carbon dioxide atmosphere. Cell supernatants were then collected, aliquoted, and assayed for TNF-alpha by ELISA with anti-TNF-alpha antibody.

[3] = tested on: IL-6 production; test: Inhibition of LPS-induced IL-6 production in RAW264.7 cells (ELISA); format: cell-based, murine; conditions: RAW264.7, 1-100 μM compound 1 hr pre-incubation, LPS 0.1 μg/ml 6 hr
Procedure: The ability of compound B to inhibit IL-6 production was also examined in LPS-stimulated RAW cells. RAW264.7 cells were grown in RPMI-1640 medium containing 3% FBS and pre-incubated for 1 hr at 37° C. with varying concentrations (1, 3, 10, 30 or 100 μM) of compound B. LPS (0.1 μg/ml) was then added, and the cells were further incubated for 6 hr at 37° C. in a 5% carbon dioxide atmosphere. Cell supernatants were then collected, aliquoted, and assayed for IL-6 by ELISA with anti-IL-6 antibody.

[4] = tested on: TNF-alpha induced killing of WEHI-13VAR cells; test: Inhibition of TNF-alpha induced cell killing (MTT viability); format: cell-based, mouse
Procedure: Compounds B and E were tested for their ability to inhibit TNF-alpha induced killing of cultured mouse fibrosarcoma cells. WEHI-13VAR cells were grown in buffered RPMI-1640 medium containing 3% FBS and assayed for TNF-alpha induced cell death as described by Khabar et al. (Immunol Lett 46:107-10, 1995). Cells were co-incubated for 20 hr with 100 pg/ml (FIG. 1A) or 1 pg/ml (FIG. 1B) of TNF-alpha and 100 μg/ml of berberine, compound B or compound E. Controls included cells receiving TNF-alpha but no drug, as well as cells receiving no TNF-alpha and treated with or without NP-40 lysis buffer. Cell viability was assayed using the dye MTT (3-(4,5-dimethylthiozol-2-yl)-2,5-diphenyl tetrazolium bromide) as described.
The dose response was measured for the ability of compound B to inhibit TNF-alpha induced killing of cultured mouse fibrosarcoma cells. In this experiment, the inhibitory action of compound B was compared to that of a chimeric recombinant protein dimer containing soluble TNF receptor fused to the Fc portion of immunoglobulin heavy chain (Mohler KM et al., J Immunol 151:1548-61,1993), a known antagonist of TNF-alpha mediated cell killing. WEHI-13VAR cells were grown in buffered RPMI-1640 medium containing 3% FBS and assayed for TNF-alpha induced cell death as described by Khabar et al. (Immunol Lett 46:107-10, 1995). […]

[5] = tested on: collagen-induced arthritis in male DBA/1 Lac mice; test: Suppression of collagen-induced arthritis in mice; format: in vivo; conditions: 50 mg/kg orally daily for 17 days, compared to vehicle-treated group
Procedure: The ability of compound B to reduce inflammation in an animal model of arthritis was also studied. Arthritis was induced by intradermal administration of collagen (100 μg/mice) in complete adjuvant in male DBA/1 Lac mice 7 weeks old. The booster immunization (100 μg/mice) in incomplete adjuvant was given subcutaneously on day 21. Two days later, when arthritic scores were around 1, animals were divided into two groups. One group received 50 mg/kg dose of compound B orally for 17 days daily. The second group received 10% PEG in water and was used as a vehicle-treated group. Body weight (FIG. 6, panel A), clinical score (FIG. 6, panel B), the number of joints affected (FIG. 6, panel C) and paw thickness (FIG. 6, panel D) were monitored 24 hours after drug administration during the treatment period.

[6] = biological target: T2, COX-1 (Mus musculus, UniProt P22437); test: Constitutive COX-1 activity in RAW264.7 cells (TXB2 EIA); format: cell-based, murine; conditions: RAW264.7, LPS 0.1 μg/ml 6 hr; higher concentrations of compound B (1-100 μM tested); dexamethasone 1 μM
T2 construct: having no effect on the constitutively expressed COX-1 activity; endogenous in cells; host or cells: RAW264.7 cells, then lysed
T2 sequence (P22437 27-602): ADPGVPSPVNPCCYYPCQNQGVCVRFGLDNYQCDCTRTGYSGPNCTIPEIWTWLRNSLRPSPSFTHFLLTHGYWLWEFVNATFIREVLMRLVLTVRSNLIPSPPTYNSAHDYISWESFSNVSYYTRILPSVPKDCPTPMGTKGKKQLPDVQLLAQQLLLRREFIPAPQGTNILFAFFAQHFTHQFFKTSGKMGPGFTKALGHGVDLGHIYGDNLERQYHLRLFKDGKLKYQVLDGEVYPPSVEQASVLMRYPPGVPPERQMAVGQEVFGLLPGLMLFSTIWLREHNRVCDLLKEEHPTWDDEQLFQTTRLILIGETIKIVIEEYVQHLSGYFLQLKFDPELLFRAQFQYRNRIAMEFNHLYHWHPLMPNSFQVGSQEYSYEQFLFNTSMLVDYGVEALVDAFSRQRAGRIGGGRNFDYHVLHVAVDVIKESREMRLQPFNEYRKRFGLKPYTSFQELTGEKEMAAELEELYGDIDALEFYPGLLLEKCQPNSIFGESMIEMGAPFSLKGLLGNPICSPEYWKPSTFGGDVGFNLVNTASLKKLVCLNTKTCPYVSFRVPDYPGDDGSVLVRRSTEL
Procedure: as §1

[7] = tested on: IL-10 production; test: Inhibition of LPS-induced IL-10 production in human PBMC (ELISA); format: cell-based; conditions: human PBMC, 1, 10, 30 or 100 μM 1 hr preincubation, LPS 1 μg/ml 20 hr
Procedure: (§2) Human peripheral blood mononuclear cells (PBMC) were purified from human blood using Ficoll-Paque PLUS separation medium (Amersham Pharmacia Biotech) according to the manufacturer's recommended protocol. After centrifugation, the central PBMC layer was collected, washed twice with phosphate buffered saline (PBS) and then plated in a 96-well plate at a density of 2×10^5 cells/well in RPMI-1640 medium containing 10% FBS. The cells were preincubated with dexamethasone (1 μM) or Compound B (1, 10, 30 or 100 μM) for 1 hr and then challenged with LPS (1 μg/ml) for 20 hr. Cells receiving no drug treatment, incubated with or without LPS, served as controls. The cell supernatants were collected, and the amount of IL-10 in each was measured by standard ELISA. […] To confirm that the observed decrease in IL-10 was not due to cytotoxicity, the PBMC were plated in a separate plate, incubated for 20 hr with the same range of doses of Compound B, and the cell viability was assessed by a standard MTS dye exclusion assay (4-hr incubation with MTS).

[8] = tested on: Human peripheral blood mononuclear cells (PBMC); test: PBMC cell viability (MTS dye exclusion assay); format: cell-based; conditions: 20 hr, 1-100 μM
Procedure: as §2

## COc1ccc(-c2ncc3c(OC)c(OC)ccc3c2O)cc1 [Compound B]
[1]
  effect on inducible COX-2 activity: completely and selectively abrogated
[2]
  inhibition of LPS-induced TNF-alpha production: ~50%
[3]
  inhibition of LPS-induced IL-6 production: up to 60%
[4]; 100 pg/ml or 50 pg/ml TNF-alpha, 20 hr, inhibition proportional to dose up to this concentration
  concentration at which the maximal inhibitory effect on TNF-alpha induced cell killing was attained: 10 µM
[4]; 100 μg/ml compound, 100 pg/ml or 1 pg/ml TNF-alpha, 20 hr co-incubation, relative to untreated or berberine-treated cells
  inhibition of TNF-alpha induced cell killing (increased cell viability): inhibited TNF-alpha induced cell killing
[5]
  body weight: No change in body weight
  clinical score: significantly lower clinical scores
  number of joints affected: fewer joints affected
  paw thickness: reduced paw thickness
[6]
  effect on constitutively expressed COX-1 activity: no effect
[7]
  inhibition of LPS-induced IL-10 production: dose-dependent inhibition
[8]
  loss in cell viability (cytotoxicity): no significant loss in cell viability

From patent US6723736B2, “Tricyclic compounds and uses thereof” (Theracos, Inc., priority 2000, dated 2004)
